Measurements: patent publication US6358492B1, “Dopamine transporter imaging ligand” (Research Triangle Institute, priority 1997, dated 2002)
Structures can show the parent of a compound that is named as a salt. Where two headings read alike, the source gives them in different places.

Columns and labels:
serotonin transporter [1] = target: serotonin transporter (UniProt P31652); conditions: read-out: IC50 5-HT [3H]Paroxetine; 0.2 nM [3H]paroxetine; values taken from literature (footnotes d-h); cited from earlier work
[2] = target: norepinephrine transporter (UniProt Q9WTR4); conditions: read-out: IC50 NE [3H]Nisoxetine; 0.5 nM [3H]nisoxetine; values taken from literature (footnotes d-h); cited from earlier work
serotonin transporter [3] = format: binding; conditions: for 5-HT/DA Ratio: ratio of IC50 values
[4] = test system: norepinephrine transporter; experiment: Inhibition of 0.5 nM [3H]nisoxetine binding to the norepinephrine transporter; conditions: ratio of IC50 values
dopamine transporter [5] = target: T1, dopamine transporter (UniProt P23977); conditions: read-out: IC50 DA [3H]WIN 35,428; 0.5 nM [3H]WIN 35,428; values taken from literature (footnotes c-h); cited from earlier work
T1 construct: other: 0.5 nM [3H]WIN 35,428; mean ± standard error where given

serotonin transporter [6] = target: serotonin transporter (UniProt P31652); format: binding; conditions: read-out: IC50 5-HT [3H]Paroxetine; 0.2 nM [3H]paroxetine; mean ± standard error where given
[7] = target: norepinephrine transporter (UniProt Q9WTR4); experiment: Inhibition of 0.5 nM [3H]nisoxetine binding to the norepinephrine transporter; conditions: read-out: IC50 NE [3H]Nisoxetine; 0.5 nM [3H]nisoxetine; mean ± standard error where given
dopamine transporter [8] = target: dopamine transporter (Mus musculus, UniProt Q61327); experiment: In vivo binding / regional brain distribution of radiolabeled ligand after i.v. injection in mice
Chain of dopamine transporter (Mus musculus, UniProt Q61327) (Q61327 whole entry): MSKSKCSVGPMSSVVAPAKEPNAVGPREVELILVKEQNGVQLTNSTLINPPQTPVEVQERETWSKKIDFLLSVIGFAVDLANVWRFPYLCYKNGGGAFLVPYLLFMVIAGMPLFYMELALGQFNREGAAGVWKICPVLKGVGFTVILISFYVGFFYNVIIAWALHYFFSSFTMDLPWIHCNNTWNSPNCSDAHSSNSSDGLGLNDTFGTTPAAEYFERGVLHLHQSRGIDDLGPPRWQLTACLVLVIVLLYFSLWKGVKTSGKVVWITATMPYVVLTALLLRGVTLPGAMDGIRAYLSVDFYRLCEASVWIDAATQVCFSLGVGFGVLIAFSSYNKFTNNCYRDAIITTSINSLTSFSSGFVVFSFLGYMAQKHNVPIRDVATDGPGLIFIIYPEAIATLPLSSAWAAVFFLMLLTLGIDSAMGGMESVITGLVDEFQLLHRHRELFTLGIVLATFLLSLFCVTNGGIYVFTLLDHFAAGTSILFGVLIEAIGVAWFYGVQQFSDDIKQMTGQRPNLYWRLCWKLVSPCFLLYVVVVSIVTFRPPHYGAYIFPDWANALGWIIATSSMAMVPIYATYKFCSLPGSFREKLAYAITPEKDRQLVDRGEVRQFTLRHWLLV
Protocol: Male CD mice weighting 25-35 g received 1 μCi [^3H]RTI-352 ([…], diluted in saline containing 0.5% methanol) by intravenous injection. The animals were killed at different times, and [^3H]RTI-352 concentrations in different brain regions determined as previously described (Scheffel et al., 1989; Cline et al., 1992). To evaluate the selectivity of [^3H]RTI-352 in vivo binding, blocking doses (5 mg/kg, dissolved in 0.1 ml saline) of GBR 12,909 (DAT blocker), desipramine (NET blocker), or paroxetine (5-HTT blocker) were injected intravenously 5 minutes before [^3H]RTI-352 tracer injection. The animals were killed 30 minutes later and [^3H]RTI-352 concentrations determined in the various brain tissues.
The percent dose per gram tissue peaked rapidly in all regions of the brain and was maintained for a slightly longer time in the striatum compared to other tissues that lack DAT. The tissue to cerebellar ratios reflected this fact in that striatal to cerebellar ratios were relatively high at early times but low at later times (FIG. 1).

dopamine transporter [9] = target: T1, dopamine transporter; format: binding; conditions: read-out: IC50 DA [3H]WIN 35,428; 0.5 nM [3H]WIN 35,428; mean ± standard error where given

For COC(=O)C1C(c2ccc(F)cc2)CC2CCC1N2C (stereo not shown) [1a], the IC50 (serotonin transporter [1]) is listed as 810 ± 59 nM and the IC50 [2] is listed as 835 ± 45 nM.
For COC(=O)C1C(c2ccc(I)cc2)CC2CCC1N2C (stereo not shown) [1b, reference compound], the “5-HT/DA Ratio” value (serotonin transporter [3]) is given as 3.3, the “NE/DA Ratio” value [4] is given as 29 and the IC50 (serotonin transporter [1]) is given as 4.21 ± 0.3 nM.
In the case of COC(=O)C1C(c2ccc(Cl)cc2)CC2CCC1N2C (stereo not shown) [1c], the IC50 (serotonin transporter [1]) is given as 44.5 ± 1.3 nM.
In the case of COC(=O)C1C(c2ccccc2)CC2CCC1N2C (stereo not shown) [1e], the IC50 [2] is given as 920 ± 73 nM and the IC50 (dopamine transporter [5]) is given as 23 ± 5 nM.
With COC(=O)[C@@H]1[C@H]2CC[C@@H](C[C@H]1c1ccc(F)cc1)N2C [2a, 3α-(4-Fluorophenyl)tropane-2β-carboxylic acid methyl ester] the IC50 (serotonin transporter [6]) was 5060 nM and the IC50 [7] was 1230 nM.
With COC(=O)[C@@H]1[C@H]2CC[C@@H](C[C@H]1c1ccc(I)cc1)N2C.Cc1ccc(S(=O)(=O)O)cc1 [2b, 3α-(4-Iodophenyl)tropane-2β-carboxylic acid methyl ester tosylate] the IC50 (serotonin transporter [6]) was 64.9 ± 1.97 nM, the “5-HT/DA Ratio” value (serotonin transporter [3]) was 23 and the “times more selective for the DAT relative to the 5-HT transporter” value (serotonin transporter [3]; relative to 1b (RTI-55)) was 7 times. For the same compound, the IC50 [7] was 52.4 ± 4.9 nM, the “NE/DA Ratio” value [4] was 18 and the “time at which striatal-to-cerebellar ratio peaked” value (dopamine transporter [8]; mouse brain, i.v. tracer) was “about 30 min”. The “time the peak striatal-to-cerebellar ratio was maintained thereafter” value (dopamine transporter [8]; mouse brain, i.v. tracer) was “about 20 min” and the IC50 (dopamine transporter [9]) was 2.85 ± 0.16 nM.
COC(=O)[C@@H]1[C@H]2CC[C@@H](C[C@H]1c1ccc(Cl)cc1)N2C [2c, 3α-(4-Chlorophenyl)tropane-2β-carboxylic acid methyl ester tosylate] showed an IC50 (serotonin transporter [6]) of 998 ± 120 nM and an IC50 (dopamine transporter [9]) of 2.4 ± 0.2 nM.
COC(=O)[C@@H]1[C@H]2CC[C@@H](C[C@H]1c1ccc(C)cc1)N2C [2d, 3α-(4-Methylphenyl)tropane-2β-carboxylic acid methyl ester tosylate] gave an IC50 [7] of 275 ± 24 nM and an IC50 (dopamine transporter [9]) of 10.2 ± 0.8 nM.
Compound COC(=O)C1C(c2ccccc2)CC2CCC1N2C (stereo not shown) [2e] has an IC50 [7] of 2080 nM and an IC50 (dopamine transporter [9]) of 101 ± 16 nM.
For [3H]C([3H])([3H])N1[C@H]2CC[C@@H]1[C@@H](C(=O)OC)[C@H](c1ccc(I)cc1)C2 [[^3H]RTI-352], the hypothalamus/cerebellum ratio (dopamine transporter [8]; mouse brain, i.v. 1 μCi tracer, little enrichment at any time) was 1.4, the efflux from brain (dopamine transporter [8]; mouse, i.v. injection) was “relatively rapid” and the penetration into brain (dopamine transporter [8]; mouse, i.v. injection) was “very rapid”.
In the case of COC(=O)[C@H]1[C@@H](c2ccc([125I])cc2)C[C@@H]2CC[C@H]1N2C [[^125I]RTI-55, reference compound], the “approach to equilibrium of striatal to cerebellar ratios” value (dopamine transporter [8]; mouse, parallel in vivo labeling experiments) is reported as “steadily increasing at 120 min”.
